According to article PMC8350397, “GSK137, a potent small-molecule BCL6 inhibitor with in vivo activity, suppresses antibody responses in mice” (The Journal of Biological Chemistry, 2021):

Assays:
mouse BCL6 and SMRT = molecular target: T1, mouse BCL6 and SMRT (Mus musculus, UniProt P41183, C67R/C84N/C8Q); experiment: BCL6 TR-FRET assay, mouse BCL6 and SMRT; type: binding
T1 construct: BCL6-Flag-6H-Avi (5-129) C8Q, C67R, C84N proteins; Flag (C); 6H (His6) (C); made in house; host or cells: E. coli
Experimental: (§1) Human, mouse and rat BCL6-Flag-6H-Avi (5-129) C8Q, C67R, C84N proteins were expressed in E. coli according to standard procedures and purified on Ni-NTA, followed by ion exchange on a Source 30Q column and size exclusion on an Superdex 200 column in a buffer of 20 mM Tris, 250 mM NaCl, 5 mM DTT, 5% glycerol, pH 8.5. All protein purities were estimated to be >90% by SDS-PAGE and the expected masses were confirmed by MS analysis. For TR-FRET assay protein was enzymatically biotinylated by treatment of protein at 100 µM with a 2 fold molar excess of biotin in the presence of 2 mM ATP and 1 µM BirA enzyme in a buffer of 50 mM bicine pH 8.3, 10 mM MgCl2 at 30 °C for 1 hour, followed by extensivedialysis against 50 mM Tris-Cl pH 8.0, 100 mM NaCl, 1 mM DTT using a 3.5 kDa cut-off membrane. Biotinylation was confirmed by MS analysis and concentration was determined by Bradford assay, after which protein was stored in aliquots at -80 °C.
(§2) Acceptor-labelled SMRT peptide H2N-[…](D2)-OH was dissolved in water by mass to give a 500 µM stock solution which was stored at -20 °C. Acceptor-labelled NCOR peptide H2N-[…](Alexa Fluor 647)-OH and acceptor-labelled BCOR peptide H2N-[…](Alexa Fluor 647)-OH were dissolved to a nominal concentration of 1 mM in DMSO, and stock solution concentration was determined by absorbance at 650 nm using an extinction coefficient of 270,000 M-1cm^-1. […]

[1] = molecular target: T2, human BCL6 BTB-POZ domain (nuclear receptor co-repressor 1 peptide) (Homo sapiens, UniProt P41182, C67R/C84N/C8Q); experiment: BCL6 TR-FRET assay, NCOR peptide displacement; type: binding; details: NCOR1 peptide, read-out: pIC50 Human TR-FRET nuclear receptor co-repressor 1 (converted)
T2 construct: BCL6-Flag-6H-Avi (5-129) C8Q, C67R, C84N proteins; Flag (C); 6H (His6) (C); made in house; host or cells: E. coli
Experimental: as §1, §2

[2] = Chromatographic log D / property forecast index; type: physicochemical
[3] = Tolerability in the immunization model (body weight, signs of toxicity, cytokines); type: in vivo, mouse
Experimental: (§3) Male CD1 mice (30–40 g, 8–9 weeks of age) were randomized into study treatment groups, housed individually and allowed to acclimatize under standard laboratory conditions for a minimum of 5 days prior to commencement of the study. Mice received food and water ad libitum. The experiment was performed in a certified dedicated in vivo experimental laboratory at the GlaxoSmithKline Medicines Research Centre, Stevenage, United Kingdom. The four treatment groups were (1) unimmunized and untreated (naive group) (n = 4); (2) intraperitoneal vehicle (n = 13), (3) GSK137 15 mg/kg (n = 14), and (4) GSK137 30 mg/kg (n = 14). Groups (2) to (4) were given intraperitoneal immunization with TNP–KLH (100 μg) on day 0, vehicle was 1% methylcellulose in water + 0.1% sodium lauryl sulphate, and compound or vehicle was given to groups (2) to (4) by oral gavage three times per day from day −1 to day +12. Blood samples were collected by tail vein for measurement of compound, IgM and IgG levels on days 0, 5, 8, and 12 ahead of immunization/first daily dose. On day 8, blood samples were also taken (n = 7) at 0.5, 1.5, 3, 5, or 7 h after first daily dose. On day 12, spleens were collected, weighed, and placed into Dulbecco's modified Eagle's medium on wet ice for analysis by flow cytometry.
To determine cytokine and chemokine levels plasma samples were analysed by electrochemiluminescence assay using a custom mouse multiplex kit (K15355K-4, Meso Scale Diagnostics (MSD), Rockville, MD, USA) to measure IFNγ, IL-6, IL-10, TNF, MCP-1, KC, IL-12, IL1b, IL-13 and IL17a according to the manufacturer’s protocol. Plates were read using an MSD Sector Imager 6000 and analysed with Discovery workbench software v4.0.11, cytokine data were back-fitted to the MSD standard curve.

Permeability (Papp) = type: in vitro ADME; details: not told
[4] = system: TNP-specific IgM and IgG responses; experiment: TNP-KLH immunization model, serum anti-TNP antibodies; type: in vivo, mouse
Experimental: as §3
For antibody measurements, TNP–bovine serum albumin–coated plates were blocked, and then, standards or serum samples diluted 1:1000 or 1:2500 were incubated for 2 h at room temperature before biotinylated antimouse IgG or IgM antibodies were allowed to bind for 1 h at room temperature and detected using streptavidin-bound horseradish peroxidase incubated for 30 min, followed by the addition of 3,3′,5,5′-tetramethylbenzidine substrate for 15 min. The reaction was stopped, and the plates read at 450 nm by spectrophotometry. Plates were washed between each incubation step to remove unbound reagent. Data analysis was carried out in GraphPad Prism 5 (GraphPad Software, Inc) software using a four-parameter logistic fit of the standards response.

Q: Which “pIC50 Mouse TR-FRET SMRT” value (mouse BCL6 and SMRT) does the source give for `Cc1ncccc1[C@H]1C[C@@H](c2cccc3nc(N)ccc23)Nc2c(F)cnn21` [GSK137, 5-((5S,7R)-3-Fluoro-7-(2-methylpyridin-3-yl)-4,5,6,7-tetrahydropyrazolo[1,5-a]pyrimidin-5-yl)quinolin-2-amine] here?
A: 7.8

Q: And the IC50 [1]?
A: 0.0251 µM

Q: What about the chromatographic logD ([2]; determined chromatographically, read-out: Chrom LogD) of the same molecule?
A: 2.3

Q: What about the “PFI (property forecast index)” value ([2]; log D modified for the number of aromatic rings) of the same molecule?
A: 6.3

Q: What about the “mouse weights vs vehicle group” value ([3]; 15 and 30 mg/kg orally TID, over the experiment) of the same molecule?
A: did not vary significantly

Q: And the “overt signs of toxicity” value ([3]; at the doses used (15 and 30 mg/kg))?
A: no overt signs of toxicity

Q: And the “levels of a panel of cytokines vs vehicle” value ([3]; mouse, in vivo)?
A: either undetectable or, if detectable, did not differ significantly

Q: What about the Papp (Permeability (Papp)) of the same molecule?
A: 86 nm/s

Q: And the “reduction of mean TNP-specific IgM levels vs vehicle” value ([4]; 15 mg/kg orally TID, day 12, p = 0.0027)?
A: 43%

Q: And the “reduction of mean TNP-specific IgG levels vs vehicle” value ([4]; 15 mg/kg orally TID, day 12, p = 0.0056)?
A: 58%

Q: And the “reduction of mean TNP-specific IgM levels vs vehicle” value ([4]; 30 mg/kg orally TID, day 12, p < 0.0001)?
A: 58%

Q: What about the “reduction of mean TNP-specific IgG levels vs vehicle” value ([4]; 30 mg/kg orally TID, day 12, p = 0.0023) of the same molecule?
A: 66%

Q: What about the “inhibition of TNP-specific IgM level” value ([4]; 15 and 30 mg/kg, day 5 or day 8) of the same molecule?
A: did not inhibit

Q: What about the “inhibition of serum TNP-specific IgG levels” value ([4]; 15 and 30 mg/kg, day 8) of the same molecule?
A: did not inhibit
